The source of these data is patent EP2108642A1, “JAK INHIBITOR” (Kyowa Hakko Kirin Co., Ltd., priority 2006, dated 2008).

The target in experiment [1] is T1, human JAK2 (Homo sapiens, UniProt O60674).
T1 construct: a functional domain (826-1132 amino acids) of human JAK2
Description: JAK2 enzyme inhibitory activity (time-resolved fluorescence kinase assay with biotinylated Lyn-substrate peptide). The experiment is classed as biochemical. The conditions noted are these: at a concentration of 1 µmol/L; His-tagged JAK2 (826-1132 amino acids), 10 µmol/L ATP, 30°C, 60 minutes. As to the method: In order to measure the JAK2 enzyme inhibitory activity, the following process was employed. […] The relative activity (%) of the well containing the test compound was calculated by assuming the activity of the well of the enzyme to which 0.1% DMSO was added as 100% and the activity of the well to which no enzyme was added as 0%, and the difference between 100 and the obtained value was assumed to be the JAK2 inhibition ratio (%) of the test compound.

Experiment [2] has as its system human acute myeloid leukemia cell line (HEL92.1.7) having a JAK2 V617F mutation. Nature of the experiment: Cell growth inhibitory activity against human acute myeloid leukemia cell line (WST-1 assay). The note with it: at a concentration of 10 µmol/L against HEL92.1.7, 72 hours culture. The experiment is classed as cell-based. As to the method:
Test Example 2: Cell growth inhibitory activity against human acute myeloid leukemia cell line
The cell growth inhibitory activity of test compound against a human acute myeloid leukemia cell line (HEL92.1.7) (ATCC No. TIB-180) having a JAK2 V617F mutation was measured according to the following process.
A Roswell Park Memorial Institute's Medium (RPMI) 1640 medium (GIBCO, catalog No. 11875-093) containing 10% fetal bovine serum (GIBCO, catalog No. 10437-028) was used to culture each cells. HEL92.1.7 cells controlled at 2. 5 × 10^4 cells/mL were inoculated into a TC MICROWELL 96U plate (Nalge Nunc, catalog No. 163320) at 80 µL per well, and were cultured at 37°C for 4 hours in a 5% carbon dioxide gas incubator. Then, 20 µL per well of DMSO solutions of test compounds adjusted to a final concentration of 10 µmol/L were added to the HEL92.1.7 cells, and the resulting mixtures were cultured again at 37°C for 72 hours in a 5% carbon dioxide gas incubator. Finally, 25 µL of WST-1 reagent {4-[3-(4-indophenyl)-2-(4-nitrophenyl)-2H-5-tetrazolio]-1,3-benz ene disulfonate sodium salt} (Roche Diagnostics K.K., catalog No. 1644807) diluted to 40% with the medium described above was added, and incubation was conducted at 37°C for 2 hours, followed by measuring absorbance at 450 nm (reference wavelength: 690 nm) with a microplate spectrophotometer SPECTRA max 340PC (Molecular Devices). As for the cell growth inhibition ratio, the relative activity (%) of the well containing a test compound was calculated by assuming the activity of the well in which […] a medium to which only DMSO was added as 0%, and then the difference between 100 and the obtained value was assumed as the growth inhibition ratio (%) of the test compound. The higher the value, the stronger the growth inhibition activity against the cells.
For orientation: Formazan colour is commonly taken as a measure of viable cells.

Counter-ions that a name gives are not always drawn. Bounds are passed on as bounds.

T1 sequence (O60674 826-1132): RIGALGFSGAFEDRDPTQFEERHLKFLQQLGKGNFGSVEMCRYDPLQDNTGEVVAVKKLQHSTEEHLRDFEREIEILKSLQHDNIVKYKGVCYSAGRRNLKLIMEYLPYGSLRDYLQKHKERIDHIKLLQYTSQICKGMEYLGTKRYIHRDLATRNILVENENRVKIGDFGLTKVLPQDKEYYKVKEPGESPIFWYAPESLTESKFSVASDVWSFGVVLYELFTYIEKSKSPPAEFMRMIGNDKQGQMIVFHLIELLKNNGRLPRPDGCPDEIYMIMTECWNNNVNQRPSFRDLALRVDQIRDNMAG

Take `O=C1NCc2c(-c3ccc(O)cc3)ccc(-c3cc4cc(CN5CCCCC5)ccc4[nH]3)c21` [Compound 305, 4-(4-Hydroxyphenyl)-7-[1H-5-(piperidinomethyl)indol-2-yl]isoindo linone hydrochloride]: the JAK2 inhibition ratio in experiment [1] is given as no less than 50%. In addition, the “cell growth inhibition ratio” value in experiment [2] was no less than 50%.

For `O=C1NCc2c(C#CCCO)ccc(-c3cc4cc(CN5CCCCC5)ccc4[nH]3)c21` [Compound 320, 4-(4-Hydroxy-1-butynyl)-7-[1H-5-(piperidinomethyl)indol-2-yl]iso indolinone hydrochloride], the JAK2 inhibition ratio in experiment [1] is no less than 50%. Further, in experiment [2], the “cell growth inhibition ratio” value is no less than 50%.

On to `CN(C)Cc1cc2c(c(-c3cc4cc(CN5CCN(CCO)CC5)ccc4[nH]3)c1)C(=O)NC2` [Compound 483, 5-(Dimethylaminomethyl)-7-{1H-5-[4-(2-hydroxyethyl)piperazin-1-ylmethyl]indol-2-yl}isoindolinone trihydrochloride], for which the JAK2 inhibition ratio in experiment [1] was no less than 50%. Further, the “cell growth inhibition ratio” value in experiment [2] is no less than 50%.

Consider `CC(C)Oc1cc2c(c(-c3cc4cc(CN5CCCCC5)ccc4[nH]3)c1)C(=O)NC2` [Compound 484, 5-(2-Propyloxy)-7-[1H-5-(piperidinomethyl)indol-2-yl]isoindolinone hydrochloride], for which the JAK2 inhibition ratio in experiment [1] is reported as no less than 50%. Also, the “cell growth inhibition ratio” value in experiment [2] is no less than 50%.

Take `CCN(CC)Cc1ccc2[nH]c(-c3cc(CN(C)C)cc4c3C(=O)NC4)cc2c1` [Compound 504, 5-(Dimethylaminomethyl)-7-[1H-5-(diethylaminomethyl)indol-2-yl)i soindolinone]: the JAK2 inhibition ratio in experiment [1] is recorded as no less than 50%. The “cell growth inhibition ratio” value in experiment [2] is no less than 50%.

As for `CC(C)Nc1cc2c(c(-c3cc4cc(CN5CCCCC5)ccc4[nH]3)c1)C(=O)NC2` [Compound 509, 5-(2-Propylamino)-7-[1H-5-(piperidinomethyl)indol-2-yl)isoindoli none dihydrochloride], in experiment [1], the JAK2 inhibition ratio is listed as no less than 50%. The “cell growth inhibition ratio” value in experiment [2] is reported as no less than 50%.

Take `Cc1cc(O)ccc1-c1cc2c(c(-c3cc4cc(CN5CCCCC5)ccc4[nH]3)c1)C(=O)NC2` [Compound 550, 5-(4-Hydroxy-2-methylphenyl)-7-[1H-5-(piperidinomethyl)indol-2-yl]isoindolinone]: the JAK2 inhibition ratio in experiment [1] was no less than 50%. Besides, in experiment [2], the “cell growth inhibition ratio” value is no less than 50%.

For the compound `CCN(CC)Cc1ccc2[nH]c(-c3cc(C(O)C(C)C)cc4c3C(=O)NC4)cc2c1` (centres unmarked) [Compound 555, 5-(1-Hydroxy-2-methylpropyl)-7-[1H-5-(diethylaminomethyl)indol-2-yl]isoindolinone hydrochloride], the JAK2 inhibition ratio in experiment [1] is no less than 50%. The “cell growth inhibition ratio” value in experiment [2] is reported as no less than 50%.

Turning to `CN(C)Cc1cc(-c2cc3cc(CN4CCCCC4)ccc3[nH]2)c2c(c1O)CNC2=O` [Compound 562, 4-Hydroxy-5-(dimethylaminomethyl)-7-[1H-5-(piperidinomethyl)indol-2-yl]isoindolinone dihydrochloride], the JAK2 inhibition ratio in experiment [1] was no less than 50%. Also, the “cell growth inhibition ratio” value in experiment [2] was no less than 50%.

On to `CC(C)Oc1cc2c(c(-c3ccc[nH]3)c1)C(=O)NC2` [Compound 571, 5-(2-Propyloxy)-7-(1H-pyrrol-2-yl)isoindolinone], for which the JAK2 inhibition ratio in experiment [1] is recorded as no less than 50%. For the same compound, in experiment [2], the “cell growth inhibition ratio” value is recorded as no less than 50%.
